Assay results as given in patent US20200113902A1, “COMPOSITIONS AND METHODS FOR TREATING CANCERS WITH COVALENT INHIBITORS OF CYCLIN-DEPENDENT KINASE 7 (CDK7)” (Syros Pharmaceuticals, Inc., priority 2017, published 2020).

Columns and labels:
[1] = test system: MCL1 protein in HCC70 cells; experiment: Western blot of BCL2 family proteins, HCC70; format: cell-based, human; details: 50 nM or 100 nM, 24 hours
Protocol: (§1) Cytotoxic cancer cell lines HCC70 and TOV21G, and cytostatic cancer cell lines T47D and COV318 were seeded in wells of a six-well dish at a density of 1×10^6 cells/well and allowed to adhere overnight. Cells were then treated with 50 nM of Compound 1 for 16 or 24 hours, or with DMSO (0 hours) representing a negative control. Cells were harvested and placed on ice, and resuspended in RIPA lysis buffer supplemented with protease and phosphatase inhibitors. Clarified lysates prepared with 4×LSD running buffer and boiled at 95° C. for 5 minutes. Equivalent amounts of sample (10 μg total protein) were run on a 4-12% Bis-Tris gel and transferred to a PDVF membrane for Western blotting using standard Western blotting protocols. Membranes were blocked with Licor TBS blocking buffer then probed with antibodies for BCL-XL, BCL-2, MCL1, BID, and GAPDH visualized using and Odyssey imager (FIGS. 23A and 23D).
(§2) In a similar experiment, TNBC breast cancer cell lines HCC70, MDAMB468, MDAMB453 and CAL-120 were grown as described above and treated with DMSO, 50 nM Compound 1 or 100 nM Compound 1 for 24 hours. Protein samples were prepared as described above for Western blotting using antibodies specific for the indicated proteins in FIG. 29A. […]

OV15398 xenograft = experiment: Ovarian PDX OV15398, tumor volume; format: in vivo, mouse; details: OV15398 (very low CDKN2A); 40 or 30 mg/kg i.v. BIW
Protocol: (§3) Patient-derived xenograft (PDX) models from ovarian carcinoma patients (OV5387, OV14702, OV14972, OV15398, OV15576, OV15696, OV15612, OV15631) were established in NOD-SCID mice at Crown Bioscience (San Diego, USA). Cryo vials containing tumor cells were thawed and prepared for injection into mice. Cells were washed in PBS, counted, and resuspended in cold PBS at a concentration of 50,000-100,000 viable cells/100 ul. Cell suspensions were mixed with an equal volume of Cultrex ECM and kept on ice during transport to the vivarium. Cells were prepared for injections by withdrawing ECM-Cell mixture into a chilled slip-tip syringe fitted with a 26G 7/8 (0.5 mm×22 mm) needle. The filled syringes were kept on ice to avoid the solidification of ECM. Each mouse was inoculated subcutaneously in the right flank with 200 uL of the cell suspension. Tumor sizes were measured in two dimensions using a caliper, and the volumes were expressed in mm3 using the formula: V=0.5 a×b^2 where a and b are the longest and shortest diameters of the tumor, respectively. Compound 1 treatment was started when the average tumor size reached 150-200 mm^3.
(§4) Compound 1 was formulated in w/v 20% Captisol (pH 4-6) and administered by i.v. twice weekly (BIW) at a final dose of 40 mg/kg or 30 mg/kg in a 10 ml/kg volume. Tumor volumes were measured twice weekly over the course of the study. […]

BR5010 xenografts = experiment: TNBC patient-derived xenograft BR5010, tumor volume; format: in vivo, mouse; details: 40 mg/kg or 30 mg/kg i.v. BIW
Protocol: as §3, with “TNBC” for “ovarian carcinoma”, “(BR5010, BR5013, BR5015, and BR5023)” for “(OV5387, OV14702, OV14972, OV15398, OV15576, OV15696, OV15612, OV15631)”, “mm^3” for “mm3”, “a×b^2,” for “a×b^2”
as §4

[2] = test system: MCL1 protein in MDAMB468 cells; experiment: Western blot of BCL2 family proteins, MDAMB468; format: cell-based, human; details: 50 nM or 100 nM, 24 hours
Protocol: as §1, §2

[3] = test system: homologous recombination deficiency / carboplatin sensitivity genes in COV318 cells; experiment: Nanostring PanCancer Pathways mRNA, COV318; format: cell-based; details: 50 nM, 16 hours
Protocol: Ovarian Cell lines OvCar3, TOV21G, A2780 and COV318 were plated at 500,000 cells/well in a 6-well plate the day before treatment. The next day the cells were treated with vehicle or 50 nM Compound 1 for 0, 6, or 16 hours after which cells were harvested and total RNA collected using RNeasy mini kit (Qiagen). Changes in mRNA between samples were analyzed with Nanostring™ PanCancer Pathways Panels specifically analyzing genes related to homologous recombination deficiency and carboplatin sensitivity (ie. BRCA1, BRCA2, Rad51, ATM, ATR, MSH2, MSH6). Nanostring signal intensities were first normalized to housekeeping genes across all cell lines, and then normalized to the 0 hour timepoint within a cell line.

[4] = test system: MCL1 protein in CAL-120 cells; experiment: Western blot of BCL2 family proteins, CAL-120; format: cell-based, human; details: 50 nM or 100 nM, 24 hours
Protocol: as §1, §2

CN(C)C/C=C/C(=O)Nc1ccc(C(=O)N[C@@]2(C)CCC[C@@H](Nc3ncc(Cl)c(-c4c[nH]c5ccccc45)n3)C2)nc1 [Compound 1, N-((1S,3R)-3-(5-chloro-4-(1H-indol-3-yl)pyrimidin-2-ylamino)-1-methylcyclohexyl)-5-((E)-4-(dimethylamino)but-2-enamido)picolinamide]
MCL1 protein level (Western blot) [1]: downregulated | Response to treatment (tumor growth) (OV15398 xenograft): responded | Tumor growth vs untreated historical samples (BR5010 xenografts): consistently inhibited tumor growth | MCL1 protein level (Western blot) [2]: downregulated | mRNA of genes related to homologous recombination deficiency and carboplatin sensitivity, all genes except Rad51 (BRCA1, BRCA2, ATM, ATR, MSH2, MSH6) [3]: downregulated | MCL1 protein level (Western blot) [4]: downregulated
